Source: article PMC2882989 (Biochemistry, 2010)

Molecular target: LovK (Caulobacter vibrioides, UniProt A0A0H3C379)
Assay: competition with BODIPY-ATP, fluorescence anisotropy
Type: binding
Settings: 1 mM ATP in excess; competitive, same site as BODIPY-ATP

## Nc1ncnc2c1ncn2[C@@H]1O[C@H](COP(=O)(O)OP(=O)(O)OP(=O)(O)O)[C@@H](O)[C@H]1O [ATP]
  competition with BODIPY-ATP, fluorescence anisotropy: BODYPI-ATP is displaced from LovK due to competition for the same binding site
